For 30 compounds, IC50 results are on record in patent US20090042964A1, “AMINO-5-[SUBSTITUTED-4-(DIFLUOROMETHOXY)PHENYL]-5-PHENYLIMIDAZOLONE COMPOUNDS AS BETA-SECRETASE INHIBITORS” (Wyeth, priority 2007, published 2009).

SMILES strings stand for the structures.

human BACE1, sequence (P56817 46-501): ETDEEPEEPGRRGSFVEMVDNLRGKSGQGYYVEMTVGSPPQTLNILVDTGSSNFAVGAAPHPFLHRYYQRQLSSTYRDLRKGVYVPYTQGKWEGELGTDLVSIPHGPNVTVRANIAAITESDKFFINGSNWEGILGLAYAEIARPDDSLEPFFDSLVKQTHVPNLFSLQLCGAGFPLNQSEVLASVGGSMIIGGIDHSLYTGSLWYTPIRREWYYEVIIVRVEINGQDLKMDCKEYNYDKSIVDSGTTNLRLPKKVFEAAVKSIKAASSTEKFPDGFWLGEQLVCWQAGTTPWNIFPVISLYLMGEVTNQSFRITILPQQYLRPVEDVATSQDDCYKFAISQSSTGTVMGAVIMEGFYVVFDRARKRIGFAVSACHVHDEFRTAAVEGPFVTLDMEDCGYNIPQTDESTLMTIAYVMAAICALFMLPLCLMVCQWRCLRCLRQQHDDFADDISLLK

The target of the experiment is human BACE1 (Homo sapiens, UniProt P56817). As to the kind of experiment: Fluorescent kinetic assay, evaluation of BACE1 binding affinity of test compounds. The experiment is classed as biochemical. As to conditions: 10 nM human BACE1, 25 μM substrate WABC-6, pH 4.5, room temperature; read-out: BACE1 IC50. The method, boiled down:
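Kinetic fluorescence assay: enzyme added last to inhibitor and substrate mix, reading started immediately; substrate at 100 μM working dilution (25 μL in 100 μL total). Buffer 66.7 mM Na-acetate pH 4.5 with 0.0667% CHAPS for inhibitor and enzyme dilutions; enzyme stock quantified at 280 nm.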
With `CCc1cc(C2(c3ccc(F)c(C#CCF)c3)N=C(N)N(C)C2=O)ccc1OC(F)F` (stereo not drawn) [Example 159, 2-Amino-5-[4-(difluoromethoxy)-3-ethylphenyl]-5-[4-fluoro-3-(3-fluoroprop-1-yn-1-yl)phenyl]-3-methyl-3,5-dihydro-4H-imidazol-4-one], the IC50 was under 0.1 µM.
For the compound `CCc1cc([C@@]2(c3cccc(C#CCF)c3)N=C(N)N(C)C2=O)ccc1OC(F)F` [Example 160, (5R)-2-Amino-5-[4-(difluoromethoxy)-3-ethylphenyl]-5-[3-(3-fluoroprop-1-yn-1-yl)phenyl]-3-methyl-3,5-dihydro-4H-imidazol-4-one], the IC50 was over 1 µM.
On to `CCc1cc([C@]2(c3cccc(C#CCF)c3)N=C(N)N(C)C2=O)ccc1OC(F)F` [Example 161, (5S)-2-Amino-5-[4-(difluoromethoxy)-3-ethylphenyl]-5-[3-(3-fluoroprop-1-yn-1-yl)phenyl]-3-methyl-3,5-dihydro-4H-imidazol-4-one], for which the IC50 is under 0.1 µM.
Turning to `CCc1cc([C@]2(c3ccc(F)c(C#CCF)c3)N=C(N)N(C)C2=O)ccc1OC(F)F` [Example 162, (5R)-2-Amino-5-[4-(difluoromethoxy)-3-ethylphenyl]-5-[4-fluoro-3-(3-fluoroprop-1-yn-1-yl)phenyl]-3-methyl-3,5-dihydro-4H-imidazol-4-one], the IC50 is under 0.1 µM.
With `CCc1cc([C@@]2(c3ccc(F)c(C#CCF)c3)N=C(N)N(C)C2=O)ccc1OC(F)F` [Example 163, (5S)-2-Amino-5-[4-(difluoromethoxy)-3-ethylphenyl]-5-[4-fluoro-3-(3-fluoroprop-1-yn-1-yl)phenyl]-3-methyl-3,5-dihydro-4H-imidazol-4-one] the figure was 0.11 to 1 µM.
Take `C#Cc1cccc(C2(c3ccc(OC(F)F)c(C4CC4)c3)N=C(N)N(C)C2=O)c1` (stereo not drawn) [Example 167, 2-amino-4-(3-cyclopropyl-4-(difluoromethoxy)phenyl)-4-(3-ethynylphenyl)-1-methyl-1H-imidazol-5(4H)-one]: the IC50 was under 0.1 µM.
The figure for `CC#Cc1cccc(C2(c3ccc(OC(F)F)c(C4CC4)c3)N=C(N)N(C)C2=O)c1` (stereo not drawn) [Example 168, 2-amino-4-(3-cyclopropyl-4-(difluoromethoxy)phenyl)-1-methyl-4-(3-(prop-1-ynyl)phenyl)-1H-imidazol-5(4H)-one] is under 0.1 µM.
The figure for `CCC#Cc1cccc(C2(c3ccc(OC(F)F)c(C4CC4)c3)N=C(N)N(C)C2=O)c1` (stereo not drawn) [Example 171, 2-amino-4-(3-(but-1-ynyl)phenyl)-4-(3-cyclopropyl-4-(difluoromethoxy)phenyl)-1-methyl-1H-imidazol-5(4H)-one] is under 0.1 µM; for `CCCC#Cc1cccc(C2(c3ccc(OC(F)F)c(C4CC4)c3)N=C(N)N(C)C2=O)c1` (stereo not drawn) [Example 172, 2-amino-4-(3-cyclopropyl-4-(difluoromethoxy)phenyl)-1-methyl-4-(3-(pent-1-ynyl)phenyl)-1H-imidazol-5(4H)-one] it is 0.11 to 1 µM; for `CC(C)C#Cc1cccc(C2(c3ccc(OC(F)F)c(C4CC4)c3)N=C(N)N(C)C2=O)c1` (stereo not drawn) [Example 173, 2-amino-4-(3-cyclopropyl-4-(difluoromethoxy)phenyl)-1-methyl-4-(3-(3-methylbut-1-ynyl)phenyl)-1H-imidazol-5(4H)-one] it is under 0.1 µM.
With `CN1C(=O)C(c2cccc(C#CC3CC3)c2)(c2ccc(OC(F)F)c(C3CC3)c2)N=C1N` (stereo not drawn) [Example 176, 2-amino-4-(3-cyclopropyl-4-(difluoromethoxy)phenyl)-4-(3-(cyclopropylethynyl)phenyl)-1-methyl-1H-imidazol-5(4H)-one] the figure was under 0.1 µM; with `CN1C(=O)C(c2cccc(C#CC(C)(C)O)c2)(c2ccc(OC(F)F)c(C3CC3)c2)N=C1N` (stereo not drawn) [Example 179, 2-amino-4-(3-cyclopropyl-4-(difluoromethoxy)phenyl)-4-(3-(3-hydroxy-3-methylbut-1-ynyl)phenyl)-1-methyl-1H-imidazol-5(4H)-one], under 0.1 µM.
Take `COCC#Cc1cccc(C2(c3ccc(OC(F)F)c(C4CC4)c3)N=C(N)N(C)C2=O)c1` (stereo not drawn) [Example 180, 2-amino-4-(3-cyclopropyl-4-(difluoromethoxy)phenyl)-4-(3-(3-methoxyprop-1-ynyl)phenyl)-1-methyl-1H-imidazol-5(4H)-one]: the IC50 was under 0.1 µM.
With `COCCC#Cc1cccc(C2(c3ccc(OC(F)F)c(C4CC4)c3)N=C(N)N(C)C2=O)c1` (stereo not drawn) [Example 183, 2-amino-4-(3-cyclopropyl-4-(difluoromethoxy)phenyl)-4-(3-(4-methoxybut-1-ynyl)phenyl)-1-methyl-1H-imidazol-5(4H)-one] the figure was under 0.1 µM; with `COCCCC#Cc1cccc(C2(c3ccc(OC(F)F)c(C4CC4)c3)N=C(N)N(C)C2=O)c1` (stereo not drawn) [Example 186, 2-amino-4-(3-cyclopropyl-4-(difluoromethoxy)phenyl)-4-(3-(5-methoxypent-1-ynyl)phenyl)-1-methyl-1H-imidazol-5(4H)-one], under 0.1 µM.
With `CN1C(=O)C(c2cccc(C3CC3)c2)(c2ccc(OC(F)F)c(C3CC3)c2)N=C1N` (stereo not drawn) [Example 187, 2-amino-4-(3-cyclopropyl-4-(difluoromethoxy)phenyl)-4-(3-cyclopropylphenyl)-1-methyl-1H-imidazol-5(4H)-one] the figure was 0.11 to 1 µM.
With `CN1C(=O)C(c2cccc(C#CCCCO)c2)(c2ccc(OC(F)F)c(C3CC3)c2)N=C1N` (stereo not drawn) [Example 188, 2-amino-4-(3-cyclopropyl-4-(difluoromethoxy)phenyl)-4-(3-(5-hydroxypent-1-ynyl)phenyl)-1-methyl-1H-imidazol-5(4H)-one] the figure was under 0.1 µM; with `CN1C(=O)C(c2cccc(C#CCCCF)c2)(c2ccc(OC(F)F)c(C3CC3)c2)N=C1N` (stereo not drawn) [Example 191, 2-amino-4-(3-cyclopropyl-4-(difluoromethoxy)phenyl)-4-(3-(5-fluoropent-1-ynyl)phenyl)-1-methyl-1H-imidazol-5(4H)-one], under 0.1 µM.
As for `CN1C(=O)C(c2ccc(OC(F)F)c(C3CC3)c2)(c2ccc(OC(F)F)c(C3CC3)c2)N=C1N` [Example 194, 2-amino-4,4-bis(3-cyclopropyl-4-(difluoromethoxy)phenyl)-1-methyl-1H-imidazol-5(4H)-one], the half-maximal inhibitory concentration (IC50) lay within 0.11 to 1 µM.
The figure for `Cc1cc(C2(c3ccc(F)c(OC(C)C)c3)N=C(N)N(C)C2=O)ccc1OC(F)F` (stereo not drawn) [Example 195, 2-amino-5-[4-(difluoromethoxy)-3-methylphenyl]-5-(4-fluoro-3-isopropoxyphenyl)-3-methyl-3,5-dihydro-4H-imidazol-4-one] is 0.11 to 1 µM.
With `Cc1cc(C2(c3cccc(C#CCF)c3)N=C(N)N(C)C2=O)ccc1OC(F)F` (stereo not drawn) [Example 196, 2-amino-5-[4-(difluoromethoxy)-3-methylphenyl]-5-[3-(3-fluoroprop-1-yn-1-yl)phenyl]-3-methyl-3,5-dihydro-4H-imidazol-4-one] the figure was under 0.1 µM; with `Cc1cc([C@@]2(c3cccc(C#CCF)c3)N=C(N)N(C)C2=O)ccc1OC(F)F` [Example 200, (5R)-2-amino-5-[4-(difluoromethoxy)-3-methylphenyl]-5-[3-(3-fluoroprop-1-yn-1-yl)phenyl]-3-methyl-3,5-dihydro-4H-imidazol-4-one], over 1 µM.
With `Cc1cc([C@]2(c3cccc(C#CCF)c3)N=C(N)N(C)C2=O)ccc1OC(F)F` [Example 201, (5S)-2-amino-5-[4-(difluoromethoxy)-3-methylphenyl]-5-[3-(3-fluoroprop-1-yn-1-yl)phenyl]-3-methyl-3,5-dihydro-4H-imidazol-4-one] the figure was under 0.1 µM; with `Cc1cc(C2(c3cccc(C#CCCF)c3)N=C(N)N(C)C2=O)ccc1OC(F)F` (stereo not drawn) [Example 202, 2-amino-5-[4-(difluoromethoxy)-3-methylphenyl]-5-[3-(4-fluorobut-1-yn-1-yl)phenyl]-3-methyl-3,5-dihydro-4H-imidazol-4-one], under 0.1 µM.
With `Cc1cc(C2(c3ccc(F)c(C#CCCF)c3)N=C(N)N(C)C2=O)ccc1OC(F)F` (stereo not drawn) [Example 203, 2-amino-5-[4-(difluoromethoxy)-3-methylphenyl]-5-[4-fluoro-3-(4-fluorobut-1-yn-1-yl)phenyl]-3-methyl-3,5-dihydro-4H-imidazol-4-one], the IC50 was under 0.1 µM.
As for `Cc1cc([C@@]2(c3cccc(C#CCCF)c3)N=C(N)N(C)C2=O)ccc1OC(F)F` [Example 204, (5R)-2-amino-5-[4-(difluoromethoxy)-3-methylphenyl]-5-[3-(4-fluorobut-1-yn-1-yl)phenyl]-3-methyl-3,5-dihydro-4H-imidazol-4-one], the IC50 is over 1 µM.
For the compound `Cc1cc([C@]2(c3ccc(F)c(C#CCCF)c3)N=C(N)N(C)C2=O)ccc1OC(F)F` [Example 205, (5R)-2-amino-5-[4-(difluoromethoxy)-3-methylphenyl]-5-[4-fluoro-3-(4-fluorobut-1-yn-1-yl)phenyl]-3-methyl-3,5-dihydro-4H-imidazol-4-one], the concentration for half-maximal inhibition (IC50) was under 0.1 µM.
With `Cc1cc([C@]2(c3cccc(C#CCCF)c3)N=C(N)N(C)C2=O)ccc1OC(F)F` [Example 206, (5S)-2-amino-5-[4-(difluoromethoxy)-3-methylphenyl]-5-[3-(4-fluorobut-1-yn-1-yl)phenyl]-3-methyl-3,5-dihydro-4H-imidazol-4-one] the figure was under 0.1 µM; with `Cc1cc([C@@]2(c3ccc(F)c(C#CCCF)c3)N=C(N)N(C)C2=O)ccc1OC(F)F` [Example 207, (5S)-2-amino-5-[4-(difluoromethoxy)-3-methylphenyl]-5-[4-fluoro-3-(4-fluorobut-1-yn-1-yl)phenyl]-3-methyl-3,5-dihydro-4H-imidazol-4-one], 0.11 to 1 µM.
With `CN1C(=O)C(c2ccc(F)c(C#CCCF)c2)(c2ccc(OC(F)F)c(C3CC3)c2)N=C1N` (stereo not drawn) [Example 208, 2-amino-5-[3-cyclopropyl-4-(difluoromethoxy)phenyl]-5-[4-fluoro-3-(4-fluorobut-1-yn-1-yl)phenyl]-3-methyl-3,5-dihydro-4H-imidazol-4-one] the figure was under 0.1 µM.
